By IC50 is commonly meant the concentration at which inhibition is half-maximal.

Molecules are shown by their SMILES.

The test deals with PD-1/PD-L1 (Homo sapiens (Human), UniProt Q9NZQ7). The test can be described thus: PD-1/PD-L1 biochemical protein-protein interaction assay (ALPHA). The note with it: 0.3 nM His tagged PD-L1, 2.5 nM biotinylated Fc-PD-1, 60 minutes at 25° C., read-out: IC50 PD-L1-PD1.
Sequence of PD-1/PD-L1 (Q9NZQ7 19-238): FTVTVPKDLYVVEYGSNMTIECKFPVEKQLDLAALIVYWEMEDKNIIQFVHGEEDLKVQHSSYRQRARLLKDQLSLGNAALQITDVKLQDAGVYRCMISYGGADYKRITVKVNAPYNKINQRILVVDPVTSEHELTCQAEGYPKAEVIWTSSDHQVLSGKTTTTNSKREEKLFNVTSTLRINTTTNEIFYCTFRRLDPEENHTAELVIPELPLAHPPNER
`COc1nc(-c2cccc(-c3cccc(-c4cnc(CN5CCC6(CCC(=O)N6)CC5)c(OC)n4)c3Cl)c2Cl)cnc1CNC[C@H]1CCC(=O)N1` [compound 203]: the IC50 came to 0.129 nM.
For `COc1nc(-c2cccc(-c3cccc(-c4cnc(CN5CC[C@H](NC(C)=O)C5)c(OC)n4)c3Cl)c2Cl)cnc1CNC[C@H]1CCC(=O)N1` [compound 204] the value was 0.11 nM; for `COc1nc(-c2cccc(-c3cccc(-c4cnc(CNC5CCCN(C(C)=O)C5)c(OC)n4)c3Cl)c2Cl)cnc1CNC[C@H]1CCC(=O)N1` (stereo partly shown) [compound 205], 0.079 nM.
For `COc1nc(-c2cccc(-c3cccc(-c4cnc(CNC5CCN(C(C)=O)CC5)c(OC)n4)c3Cl)c2Cl)cnc1CNC[C@H]1CCC(=O)N1` [compound 206] the value was 0.113 nM; for `COc1nc(-c2cccc(-c3cccc(-c4cnc(CN5CC6(CNC(=O)N6)C5)c(OC)n4)c3Cl)c2Cl)cnc1CNC[C@H]1CCC(=O)N1` [compound 207], 0.104 nM; for `COc1nc(-c2cccc(-c3cccc(-c4cnc(CNC5CC6(C5)CN(C(C)=O)C6)c(OC)n4)c3Cl)c2Cl)cnc1CNC[C@H]1CCC(=O)N1` [compound 208], 0.223 nM.
With `COc1nc(-c2cccc(-c3cccc(-c4cnc(CN5CC6(C5)CN(C(C)=O)C6)c(OC)n4)c3Cl)c2Cl)cnc1CN1CC2(C1)CN(C(C)=O)C2` [compound 209], the concentration for half-maximal inhibition (IC50) was 0.175 nM.
With `COc1nc(-c2cccc(-c3cccc(-c4cnc(CNCC5(C)COC(=O)N5)c(OC)n4)c3Cl)c2Cl)cnc1CNC[C@@H]1CCC(=O)N1` (stereo partly shown) [compound 210] the figure was 0.3 nM; with `COc1nc(-c2cccc(-c3cccc(-c4cnc(CNC[C@@H]5CCC(=O)N5)c(OC)n4)c3Cl)c2Cl)cnc1CNCCN1CCNC1=O` [compound 211], 0.095 nM; with `COc1nc(-c2cccc(-c3cccc(-c4cnc(CNC5CCc6cn[nH]c6C5)c(OC)n4)c3Cl)c2Cl)cnc1CNC[C@@H]1CCC(=O)N1` (stereo partly shown) [compound 212], 0.48 nM.
For `COc1nc(-c2cccc(-c3cccc(-c4cnc(CNCC5(C#N)CCC5)c(OC)n4)c3Cl)c2Cl)cnc1CNC[C@@H]1CCC(=O)N1` [compound 213] the value was 0.84 nM; for `COc1nc(-c2cccc(-c3cccc(-c4cnc(CNC[C@@H]5CCC(=O)N5)c(OC)n4)c3Cl)c2Cl)cnc1CNCCn1ccc(C)n1` [compound 214], 0.26 nM; for `COC[C@@H]1CC[C@H]1NCc1ncc(-c2cccc(-c3cccc(-c4cnc(CNC[C@@H]5CCC(=O)N5)c(OC)n4)c3Cl)c2Cl)nc1OC` [compound 215], 0.11 nM.
For `COc1nc(-c2cccc(-c3cccc(-c4cnc(CN5CC[C@@H]6CC[C@@H](O)[C@@H]65)c(OC)n4)c3Cl)c2Cl)cnc1CNC[C@@H]1CCC(=O)N1` [compound 216] the value was 0.21 nM; for `COc1nc(-c2cccc(-c3cccc(-c4cnc(CNC5CC(CC(N)=O)C5)c(OC)n4)c3Cl)c2Cl)cnc1CNC[C@@H]1CCC(=O)N1` (stereo partly shown) [compound 217], 0.14 nM.
With `COc1nc(-c2cccc(-c3cccc(-c4cnc(CNCC5(S(C)(=O)=O)CC5)c(OC)n4)c3Cl)c2Cl)cnc1CNC[C@@H]1CCC(=O)N1` [compound 218], the IC50 is 0.14 nM.
With `COc1nc(-c2cccc(-c3cccc(-c4cnc(CNC[C@@H]5C[C@H]5c5cccnc5)c(OC)n4)c3Cl)c2Cl)cnc1CNC[C@@H]1CCC(=O)N1` [compound 219] the figure was 0.19 nM; with `COc1nc(-c2cccc(-c3cccc(-c4cnc(CNC[C@@H]5CCC(=O)N5)c(OC)n4)c3Cl)c2Cl)cnc1CNCC1CC1CC#N` (stereo partly shown) [compound 220], 0.36 nM.
For `COC[C@H]1C[C@@H](NCc2ncc(-c3cccc(-c4cccc(-c5cnc(CNC[C@@H]6CCC(=O)N6)c(OC)n5)c4Cl)c3Cl)nc2OC)C1` [compound 221] the value was 0.227 nM; for `COc1nc(-c2cccc(-c3cccc(-c4cnc(CNC5CCC([S+](C)[O-])C5)c(OC)n4)c3Cl)c2Cl)cnc1CNC[C@@H]1CCC(=O)N1` (stereo partly shown) [compound 222], 0.291 nM; for `COc1nc(-c2cccc(-c3cccc(-c4cnc(CN[C@@H]5CCOC[C@H]5C)c(OC)n4)c3Cl)c2Cl)cnc1CNC[C@@H]1CCC(=O)N1` [compound 223], 0.584 nM.
For `COc1nc(-c2cccc(-c3cccc(-c4cnc(CN5C[C@@H](OC)C[C@H]5CO)c(OC)n4)c3Cl)c2Cl)cnc1CNC[C@@H]1CCC(=O)N1` [compound 224] the value was 0.393 nM; for `COCCC1CN(Cc2ncc(-c3cccc(-c4cccc(-c5cnc(CNC[C@@H]6CCC(=O)N6)c(OC)n5)c4Cl)c3Cl)nc2OC)C1` [compound 225], 0.288 nM.
With `CC[C@@H]1OCC[C@H]1NCc1ncc(-c2cccc(-c3cccc(-c4cnc(CNC[C@@H]5CCC(=O)N5)c(OC)n4)c3Cl)c2Cl)nc1OC` [compound 226], the IC50 is 0.474 nM.
`COc1nc(-c2cccc(-c3cccc(-c4cnc(CNC[C@@H]5CCC(=O)N5)c(OC)n4)c3Cl)c2Cl)cnc1CNCC1CCN(C(C)=O)C1` (stereo partly shown) [compound 227]: the half-inhibitory concentration (IC50) was 0.136 nM.
In the case of `COc1nc(-c2cccc(-c3cccc(-c4cnc(CNC[C@H]5C[C@@H](OC)C5)c(OC)n4)c3Cl)c2Cl)cnc1CNC[C@@H]1CCC(=O)N1` [compound 228], the concentration for half-maximal inhibition (IC50) is 0.168 nM.
With `COc1nc(-c2cccc(-c3cccc(-c4cnc(CN5CC[C@@H](C)[C@@H](O)C5)c(OC)n4)c3Cl)c2Cl)cnc1CNC[C@@H]1CCC(=O)N1` [compound 229] the figure was 0.229 nM.
With `COc1nc(-c2cccc(-c3cccc(-c4cnc(CN5C[C@@H]6CCC[C@]6(CO)C5)c(OC)n4)c3Cl)c2Cl)cnc1CNC[C@@H]1CCC(=O)N1` [compound 230], the half-maximal inhibitory concentration (IC50) came to 0.331 nM.
With `COc1nc(-c2cccc(-c3cccc(-c4cnc(CN5CC[C@@H](O)[C@H](C)C5)c(OC)n4)c3Cl)c2Cl)cnc1CNC[C@@H]1CCC(=O)N1` [compound 231] the figure was 0.064 nM.
With `COc1nc(-c2cccc(-c3cccc(-c4cnc(CN5CCC6(CCOC6=O)C5)c(OC)n4)c3Cl)c2Cl)cnc1CNC[C@@H]1CCC(=O)N1` (stereo partly shown) [compound 232] the figure was 0.312 nM.
In the case of `CCO[C@H]1C[C@H](NCc2ncc(-c3cccc(-c4cccc(-c5cnc(CNC[C@@H]6CCC(=O)N6)c(OC)n5)c4Cl)c3Cl)nc2OC)C1` [compound 233], the IC50 stood at 0.451 nM.
Consider `COc1nc(-c2cccc(-c3cccc(-c4cnc(CN5CC6(CCOC6)C5)c(OC)n4)c3Cl)c2Cl)cnc1CNC[C@@H]1CCC(=O)N1` [compound 234], for which the half-inhibitory concentration (IC50) was 0.088 nM.
`COc1nc(-c2cccc(-c3cccc(-c4cnc(CNC[C@@H]5CCC(=O)N5)c(OC)n4)c3Cl)c2Cl)cnc1CNCCC1CNC(=O)C1` (stereo partly shown) [compound 235]: the 50% inhibitory concentration (IC50) turned out to be 0.106 nM.
Turning to `COc1nc(-c2cccc(-c3cccc(-c4cnc(CNC[C@@H]5CCC(=O)N5)c(OC)n4)c3Cl)c2Cl)cnc1CNCCC1CCCO1` (stereo partly shown) [compound 236], the IC50 stood at 0.064 nM.
For `COc1nc(-c2cccc(-c3cccc(-c4cnc(CNC(CCO)C5CC5)c(OC)n4)c3Cl)c2Cl)cnc1CNC[C@@H]1CCC(=O)N1` (stereo partly shown) [compound 237], the half-inhibitory concentration (IC50) came out at 0.064 nM.
With `COCC(NCc1ncc(-c2cccc(-c3cccc(-c4cnc(CNC[C@@H]5CCC(=O)N5)c(OC)n4)c3Cl)c2Cl)nc1OC)C1CC1` (stereo partly shown) [compound 238] the figure was 0.297 nM; with `COc1nc(-c2cccc(-c3cccc(-c4cnc(CN5CC(F)(CO)C5)c(OC)n4)c3Cl)c2Cl)cnc1CN1CC(F)(CO)C1` [compound 239], 0.3 nM.
With `COc1nc(-c2cccc(-c3cccc(-c4cnc(CN5CC(O)(CO)C5)c(OC)n4)c3Cl)c2Cl)cnc1CN1CC(O)(CO)C1` [compound 240] the figure was 0.09 nM; with `COc1nc(-c2cccc(-c3cccc(-c4cnc(CN[C@H]5C[C@@](C)(O)C5)c(OC)n4)c3Cl)c2Cl)cnc1CN[C@H]1C[C@@](C)(O)C1` [compound 241], 0.27 nM.
With `COc1nc(-c2cccc(-c3cccc(-c4cnc(CNC[C@H]5C[C@H](O)C5)c(OC)n4)c3Cl)c2Cl)cnc1CNC[C@H]1C[C@H](O)C1` [compound 242] the figure was 0.14 nM; with `COc1nc(-c2cccc(-c3cccc(-c4cnc(CNC[C@H]5C[C@@H](O)C5)c(OC)n4)c3Cl)c2Cl)cnc1CNC[C@H]1C[C@@H](O)C1` [compound 243], 0.11 nM.
Turning to `COc1nc(-c2cccc(-c3cccc(-c4cnc(CNC[C@@H]5CC(C)(C)C(=O)N5)c(OC)n4)c3Cl)c2Cl)cnc1CNC[C@@H]1CC(C)(C)C(=O)N1` [compound 244], the IC50 was found to be 0.08 nM.
With `COc1nc(-c2cccc(-c3cccc(-c4cnc(CNC[C@@H]5CC(C)(C)C(=O)N5)c(OC)n4)c3Cl)c2Cl)cnc1CNC[C@@H]1CCC(=O)N1` [compound 245] the figure was 0.15 nM; with `COc1nc(-c2cccc(-c3cccc(-c4cnc(CNC[C@@H]5COC(=O)N5)c(OC)n4)c3Cl)c2Cl)cnc1CNC[C@@H]1CCC(=O)N1` [compound 246], 0.21 nM; with `COc1nc(-c2cccc(-c3cccc(-c4cnc(CNC(CO)CCF)c(OC)n4)c3Cl)c2Cl)cnc1CNC[C@@H]1CCC(=O)N1` (stereo partly shown) [compound 247], 0.13 nM.
Take `COc1nc(-c2cccc(-c3cccc(-c4cnc(CNC(CO)CF)c(OC)n4)c3Cl)c2Cl)cnc1CNC[C@@H]1CCC(=O)N1` (stereo partly shown) [compound 248]: the IC50 stood at 0.18 nM.
As to `COCC(NCc1ncc(-c2cccc(-c3cccc(-c4cnc(CNC[C@@H]5CCC(=O)N5)c(OC)n4)c3Cl)c2Cl)nc1OC)C(F)(F)F` (stereo partly shown) [compound 249], the half-maximal inhibitory concentration (IC50) came to 2.67 nM.
For `COc1nc(-c2cccc(-c3cccc(-c4cnc(CN5CCN[C@@H](C)C5)c(OC)n4)c3Cl)c2Cl)cnc1CNC[C@@H]1CCC(=O)N1` [compound 250] the value was 0.12 nM; for `COc1nc(-c2cccc(-c3cccc(-c4cnc(CN5CCN[C@H](C)C5)c(OC)n4)c3Cl)c2Cl)cnc1CNC[C@@H]1CCC(=O)N1` [compound 251], 0.07 nM; for `COc1nc(-c2cccc(-c3cccc(-c4cnc(CN5CC(F)(CO)C5)c(OC)n4)c3Cl)c2Cl)cnc1CNC[C@@H]1CCC(=O)N1` [compound 252], 0.06 nM.
With `COc1nc(-c2cccc(-c3cccc(-c4cnc(CN5CC(O)(CO)C5)c(OC)n4)c3Cl)c2Cl)cnc1CNC[C@@H]1CCC(=O)N1` [compound 253] the figure was 0.09 nM.
With `COc1nc(-c2cccc(-c3cccc(-c4cnc(CNC[C@@H]5CCC(=O)N5)c(OC)n4)c3Cl)c2Cl)cnc1CNC[C@H]1CCN1` [compound 254] the figure was 0.11 nM.
